Data: PubChem BioAssay (NCI)
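Here, GI50 denotes the concentration required for 50% inhibition of growth. TGI: total growth inhibition.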

Legend:
Experiment in all cases: growth of human tumour cells (NCI), 384-well format
786-0 renal = test system: 786-0 renal
A498 renal = test system: A498 renal
A549 NSCLC = test system: A549 NSCLC
ACHN renal = test system: ACHN renal
BT-549 breast = test system: BT-549 breast
CAKI-1 renal = test system: CAKI-1 renal
CCRF-CEM leukemia = test system: CCRF-CEM leukemia
COLO 205 colon = test system: COLO 205 colon
DU-145 prostate = test system: DU-145 prostate
HCC-2998 colon = test system: HCC-2998 colon
HCT-116 colon = test system: HCT-116 colon
HCT-15 colon = test system: HCT-15 colon
HL-60(TB) leukemia = test system: HL-60(TB) leukemia
HOP-62 NSCLC = test system: HOP-62 NSCLC
HOP-92 NSCLC = test system: HOP-92 NSCLC
HT29 colon = test system: HT29 colon
IGROV1 ovarian = test system: IGROV1 ovarian
K-562 leukemia = test system: K-562 leukemia
KM12 colon = test system: KM12 colon
LOX IMVI melanoma = test system: LOX IMVI melanoma
M14 melanoma = test system: M14 melanoma
MALME-3M melanoma = test system: MALME-3M melanoma
MCF7 breast = test system: MCF7 breast
MDA-MB-231 breast = test system: MDA-MB-231 breast
MDA-MB-435 melanoma = test system: MDA-MB-435 melanoma
MDA-MB-468 breast = test system: MDA-MB-468 breast
MOLT-4 leukemia = test system: MOLT-4 leukemia
NCI-H226 lung = test system: NCI-H226 lung
NCI-H23 lung = test system: NCI-H23 lung

## Cc1c(C)n(CCCN2CCN(C)CC2)c2ccc(Oc3cccc(C(=O)N4CCN(CCc5ccc(F)cc5)CC4)c3)cc12
786-0 renal
  GI50: 1520 nM
  TGI: 2870 nM
A498 renal
  GI50: 1520 nM
  TGI: 2860 nM
A549 NSCLC
  GI50: 1600 nM
  TGI: 2980 nM
ACHN renal
  GI50: 1610 nM
  TGI: 2980 nM
BT-549 breast
  GI50: 1320 nM
  TGI: 2600 nM
CAKI-1 renal
  GI50: 1510 nM
  TGI: 2850 nM
CCRF-CEM leukemia
  GI50: 1630 nM
  TGI: 2990 nM
COLO 205 colon
  GI50: 1680 nM
  TGI: 3070 nM
DU-145 prostate
  GI50: 1730 nM
  TGI: 3130 nM
HCC-2998 colon
  GI50: 1430 nM
  TGI: 2740 nM
HCT-116 colon
  GI50: 1470 nM
  TGI: 2800 nM
HCT-15 colon
  GI50: 1430 nM
  TGI: 2750 nM
HL-60(TB) leukemia
  GI50: 2030 nM
  TGI: 3460 nM
HOP-62 NSCLC
  GI50: 1630 nM
  TGI: 3000 nM
HOP-92 NSCLC
  GI50: 1430 nM
  TGI: 2740 nM
HT29 colon
  GI50: 1450 nM
  TGI: 2800 nM
IGROV1 ovarian
  GI50: 1580 nM
  TGI: 2940 nM
K-562 leukemia
  GI50: 1430 nM
  TGI: 2760 nM
KM12 colon
  GI50: 1720 nM
  TGI: 3120 nM
LOX IMVI melanoma
  GI50: 2090 nM
  TGI: 3540 nM
M14 melanoma
  GI50: 1600 nM
  TGI: 2960 nM
MALME-3M melanoma
  GI50: 1410 nM
  TGI: 2710 nM
MCF7 breast
  GI50: 1720 nM
  TGI: 3110 nM
MDA-MB-231 breast
  GI50: 1910 nM
  TGI: 3320 nM
MDA-MB-435 melanoma
  GI50: 1720 nM
  TGI: 3110 nM
MDA-MB-468 breast
  GI50: 1390 nM
  TGI: 2690 nM
MOLT-4 leukemia
  GI50: 1810 nM
  TGI: 3200 nM
NCI-H226 lung
  GI50: 1590 nM
  TGI: 2940 nM
NCI-H23 lung
  GI50: 1500 nM
